Patent publication US20260337156A1, “SOLUBILIZING COMPOUNDS” (Vivesto AB, priority 2022, published 2026)

Key:
[1] = appearance of the hydrated drug formulation; assay type: physicochemical
Experimental: 3.8 mg of compound 1 was dispensed into a 25 mL round bottom flask and dissolved in methanol (2 mL). 240 μL of a stock solution of docetaxel in methanol (5 mg/mL) was added.
(§1) The solution was evaporated to dryness in a rotary evaporator. Final drying was performed in a desiccator to remove residual solvent. Hydration of the dried film was performed by adding water for injection (1.2 mL). […] Drug loading capacity is defined as the ratio of amount API:(API+excipient).
(§2) 11 mg of example 1 was dispensed into a 25 mL round bottom flask and dissolved in methanol (2 mL). 740 μL of a stock solution of docetaxel in methanol (4.96 mg/mL) was added. The solution was evaporated to dryness in a rotary evaporator. Final drying was performed in a desiccator to remove residual solvent.
as §2, with “4.5” for “11”, “compound” for “example”, “1500” for “740”, “cabazitaxel” for “docetaxel”, “(1.00” for “(4.96”
as §2, with “4.5” for “11”, “compound” for “example”, “1500” for “740”, “cyclosporin” for “docetaxel”, “(1.00” for “(4.96”, “solvent. […]” for “solvent.”
4.5 mg of compound 4 was dispensed into a round bottom flask and dissolved in methanol (3 mL). […] of a stock solution of docetaxel in methanol (4.96 mg/mL) was added. The solution was evaporated to dryness in a rotary evaporator. Final drying was performed in a desiccator (40 min) to remove residual solvent. Rehydration of the dried film was performed by adding 0.9% sodium chloride solution (1.5 mL).

[2] = drug loading capacity (ratio of amount API:(API+excipient)); assay type: physicochemical
Experimental: as §1
20 mg of example 1 was dispensed into a 25 mL round bottom flask and dissolved in methanol (3 mL). 800 μL of a stock solution of docetaxel in methanol (5 mg/mL) was added. The solution was evaporated to dryness in a rotary evaporator. Final drying was performed in a desiccator to remove residual solvent. Hydration of the dried film was performed by adding water for injection (1.0 mL) to a concentration of 4 mg/mL of docetaxel. The 4 mg/mL concentration was further diluted with 0.9% sodium chloride according to the table below.
as §2
as §2, with “4.5” for “11”, “compound” for “example”, “1500” for “740”, “cabazitaxel” for “docetaxel”, “(1.00” for “(4.96”
as §2, with “4.5” for “11”, “compound” for “example”, “1500” for “740”, “cyclosporin” for “docetaxel”, “(1.00” for “(4.96”
4.0 mg of compound 2 was dispensed into a 25 mL round bottom flask and dissolved in methanol (3 mL). 250 μL of a stock solution of docetaxel in methanol (5 mg/mL) was added. The solution was evaporated to dryness in a rotary evaporator. Final drying was performed in a desiccator to remove residual solvent. Hydration of the dried film was performed by adding water for injection (1.25 mL). […]
as §2, with “4.5” for “11”, “compound 3” for “example 1”, “(3” for “(2”, “305” for “740”
as §2, with “4.5” for “11”, “compound 3” for “example 1”, “(3” for “(2”, “[…]” for “740”

[3] = docetaxel, ratio 3:1, docetaxel conc. 1 mg/mL

appearance of formulation ([1]; formulation with cabazitaxel, 1 mg/mL in 0.9% NaCl)	appearance of formulation ([1]; formulation with cyclosporin, 1 mg/mL in 0.9% NaCl)	appearance of formulation ([1]; formulation with docetaxel)	Drug loading capacity ([2]; cabazitaxel, ratio 3:1, cabazitaxel conc. 0.25 mg/mL) [%]	Drug loading capacity ([2]; cabazitaxel, ratio 3:1, cabazitaxel conc. 0.5 mg/mL) [%]	Drug loading capacity ([2]; cabazitaxel, ratio 3:1, cabazitaxel conc. 1 mg/mL) [%]	Drug loading capacity ([2]; cyclosporin, ratio 3:1, cyclosporin conc. 0.25 mg/mL) [%]	Drug loading capacity ([2]; cyclosporin, ratio 3:1, cyclosporin conc. 0.5 mg/mL) [%]	Drug loading capacity ([2]; cyclosporin, ratio 3:1, cyclosporin conc. 1 mg/mL) [%]	Drug loading capacity ([2]; docetaxel 1.2 mg + compound 3.8 mg) [%]	Drug loading capacity [2, 3] [%]	Drug loading capacity ([2]; docetaxel, ratio 5:1, docetaxel conc. 1 mg/mL) [%]	Drug loading capacity ([2]; docetaxel, ratio 2:1, docetaxel conc. 0.25 mg/mL) [%]	Drug loading capacity ([2]; docetaxel, ratio 2:1, docetaxel conc. 0.5 mg/mL) [%]	Drug loading capacity ([2]; docetaxel, ratio 2:1, docetaxel conc. 1 mg/mL) [%]	Drug loading capacity ([2]; docetaxel, ratio 3:1, docetaxel conc. 0.25 mg/mL) [%]	Drug loading capacity ([2]; docetaxel, ratio 3:1, docetaxel conc. 0.5 mg/mL) [%]	Structure (SMILES)
yellow transparent solution	yellow transparent solution	yellow transparent solution	25	25	25	25	25	25	24	25	17	–	–	–	–	–	COc1cc(C)c(/C=C/C(C)=C/C=C/C(C)=C/C(=O)N(CCS(=O)(=O)[O-])C2CCCCC2)c(C)c1C.[Na+] [Compound 1]
–	–	transparent yellow solution	–	–	–	–	–	–	–	25	–	25	25	25	25	25	COc1cc(C)c(/C=C/C(C)=C/C=C/C(C)=C/C(=O)N(C)CCS(=O)(=O)[O-])c(C)c1C.[Na+] [Compound 3]
